Test results: patent US6441169B1, “Pyrimidin-2-oxy-4-one and pyrimidin-2-oxy-4-thione derivatives” (Syngenta Crop Protection, Inc., priority 1997, dated 2002)

What was measured:
Puccinia graminis = format: in vivo; conditions: wheat plants; a) spray 0.02% active ingredient, infected 24 hours later; b) soil drench 0.006% a.i., infected after 48 hours; evaluation 12 days after infection
[1] = test system: Colletotrichum lagenarium; experiment: B-2 Action against Colletotrichum lagenarium on cucumbers; format: in vivo; conditions: cucumber plants; spray concentration 0.002%; infected 2 days later; evaluation 8 days after infection
Method: Action Against Colletotrichum lagenarium on Cucumbers After a growth period of 2 weeks, cucumber plants are sprayed with an aqueous spray mixture (concentration 0.002%) prepared from a wettable powder formulation of the test compound and infected 2 days later with a spore suspension (1.5×10^5 spores/ml) of the fungus and incubated for 36 hours at 23° C. and high humidity. Incubation is then continued at normal humidity and c. 22° C. Evaluation of the fungal infestation is made 8 days after infection.

Venturia inaegualis = experiment: B-3 Residual-protective action against Venturia inaegualis on apples; format: in vivo; conditions: apple cuttings; spray 0.02% a.i.; infected 24 hours later; evaluation 12 days after infection
Method: Residual-protective Action Against Venturia inaegualis on Apples Apple cuttings with fresh shoots 10 to 20 cm long are sprayed to drip point with a spray mixture (0.02% a.i.) prepared from a wettable powder formulation of the test compound. The plants are infected 24 hours later with a conidia suspension of the fungus. The plants are then incubated for 5 days at 90 to 100% relative humidity and stood in a greenhouse for a further 10 days at 20 to 24° C. Evaluation of the fungal infestation is made 12 days after infection.

| Compound | activity against Puccinia graminis (fungal infestation) (Puccinia graminis) | activity against Colletotrichum lagenarium (fungal infestation) [1] | activity against Venturia inaegualis (fungal infestation) (Venturia inaegualis) | melting point |
| --- | --- | --- | --- | --- |
| CCCn1c(OCC2(C)CC2)nc2ccc(Br)cc2c1=O [Compound 1.7, 6-bromo-2-(1-methylcyclopropylmethoxy)-3-n-propyl-3Hquinazoline-4-one] | good to excellent activity | good to excellent activity | good activity | 81 to 85 °C |
| CCCCn1c(OCC2(C)CC2)nc2ccc(Br)cc2c1=O [Compound 1.10, 6-bromo-2-(1-methylcyclopropylmethoxy)-3-n-buyl-3H-quinazoline-4-one] | good to excellent activity | good to excellent activity | good activity | – |
| CC1(COc2nc3ccc(Br)cc3c(=O)n2CC2CC2)CC1 [Compound 1.15] | good to excellent activity | good to excellent activity | good activity | – |
| CCCn1c(OCC2CC2C)nc2ccc(Br)cc2c1=O (centres unmarked) [Compound 1.22, 6-bromo-2-(2-methylcyclopropylmethoxy)-3-n-propyl-3H-quinazoline-4-one] | good to excellent activity | good to excellent activity | good activity | 49 to 51 °C |
| CCCCn1c(OCC2CC2C)nc2ccc(Br)cc2c1=O (centres unmarked) [Compound 1.25, 6-bromo-2-(2-methylcyclopropylmethoxy)-3-n-buyl-3H-quinazoline-4-one] | good to excellent activity | good to excellent activity | good activity | – |
| CC1CC1COc1nc2ccc(Br)cc2c(=O)n1CC1CC1 (centres unmarked) [Compound 1.30] | good to excellent activity | good to excellent activity | good activity | – |
| CCCn1c(OCC2CC2(Cl)Cl)nc2ccc(Br)cc2c1=O (centres unmarked) [Compound 1.37] | good to excellent activity | good to excellent activity | good activity | – |
| CCCn1c(OCC2(C)CC2)nc2sc(Cl)cc2c1=O [Compound 3.6, 6-chloro-2-(1-methylcyclopropylmethoxy)-3-n-propyl-3H-thieno[2.3-d]pyrimidin-4-one] | good to excellent activity | good to excellent activity | good activity | – |
| CCCn1c(OCC2(C)CC2)nc2sc(Br)cc2c1=O [Compound 3.7, 6-bromo-2-(1-methylcyclopropylmethoxy)-3-n-propyl-3H-thieno[2.3-d]pyrimidin-4-one] | good to excellent activity | good to excellent activity | good activity | – |
| CCCn1c(OCC2CC2C)nc2sc(Cl)cc2c1=O (centres unmarked) [Compound 3.21, 6-chloro-2-(2-methylcyclopropylmethoxy)-3-n-propyl-3H-thieno[2.3-d]pyrimidin-4-one] | good to excellent activity | good to excellent activity | good activity | – |
| CCCn1c(OCC2CC2C)nc2sc(Br)cc2c1=O (centres unmarked) [Compound 3.22, 6-bromo-2-(2-methylcyclopropylmethoxy)-3-n-propyl-3H-thieno[2.3-d]pyrimidin-4-one] | good to excellent activity | good to excellent activity | good activity | – |
| CCCn1c(OCC2CC2(Cl)Cl)nc2sc(Cl)cc2c1=O (centres unmarked) [Compound 3.36, 6-chloro-2-(2,2-Dichlorocyclopropylmethoxy)-3-n-propyl-3H-thieno-[2.3-d]pyrimidin-4-one] | good to excellent activity | good to excellent activity | good activity | – |
| CCCn1c(OCC2CC2(F)F)nc2sc(Cl)cc2c1=O (centres unmarked) [Compound 3.51] | good to excellent activity | good to excellent activity | good activity | – |
| CCCn1c(OCC2CC2(F)F)nc2sc(Br)cc2c1=O (centres unmarked) [Compound 3.52] | good to excellent activity | good to excellent activity | good activity | – |
| CCCn1c(OCC2(C)CC2)nc2c(Br)csc2c1=O [Compound 4.8] | good to excellent activity | good to excellent activity | good activity | – |
| CCCn1c(OCC2CC2C)nc2c(Br)csc2c1=O (centres unmarked) [Compound 4.23] | good to excellent activity | good to excellent activity | good activity | – |
